The values that follow come from PubChem BioAssay AID328 (DTP/NCI, 2004).

Inconclusive results and toxic doses are left out.

For the test, the system named is BDF1 mice, P388 leukemia ip, median survival T/C. Description: NCI In Vivo Anticancer Drug Screen. Data for tumor model P388 Leukemia (intraperitoneal) in B6D2F1 (BDF1) mice. Conditions: endpoint: median survival time, higher = longer survival. In outline: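 Transplantable tumour in mice; compound vs vehicle dosing; survival scored; ratio of treated to control reported.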

[1] abbreviates: dose: 100.0 mg/kg/injection, schedule: Q04DX003 (ip), vehicle: Klucel (hydroxypropylcellulose) (HPC).
The mark [2] stands for this setting: dose: 200.0 mg/kg/injection, schedule: Q04DX003 (ip), vehicle: Klucel (hydroxypropylcellulose) (HPC).
Setting [3] is: dose: 400.0 mg/kg/injection, schedule: Q04DX003 (ip), vehicle: Klucel (hydroxypropylcellulose) (HPC).
[4] abbreviates: dose: 100.0 mg/kg/injection, schedule: Q04DX003 (ip), vehicle: saline with Tween-80.
[5] abbreviates: dose: 200.0 mg/kg/injection, schedule: Q04DX003 (ip), vehicle: saline with Tween-80.
The mark [6] stands for this setting: dose: 100.0 mg/kg/injection, schedule: Q01DX009 (ip), vehicle: saline with Tween-80.
Where [7] appears, read: dose: 200.0 mg/kg/injection, schedule: Q01DX009 (ip), vehicle: saline with Tween-80.
[8] abbreviates: dose: 400.0 mg/kg/injection, schedule: Q01DX009 (ip), vehicle: saline with Tween-80.
Where [9] appears, read: dose: 50.0 mg/kg/injection, schedule: Q01DX009 (ip), vehicle: saline with Tween-80.
[10] abbreviates: dose: 400.0 mg/kg/injection, schedule: Q04DX003 (ip), vehicle: saline with Tween-80.
The mark [11] stands for this setting: dose: 50.0 mg/kg/injection, schedule: Q01DX009 (ip), vehicle: Klucel (hydroxypropylcellulose) (HPC).
Where [12] appears, read: dose: 100.0 mg/kg/injection, schedule: Q01DX009 (ip), vehicle: Klucel (hydroxypropylcellulose) (HPC).
The mark [13] stands for this setting: dose: 200.0 mg/kg/injection, schedule: Q01DX009 (ip), vehicle: Klucel (hydroxypropylcellulose) (HPC).

On to `CCCCCc1ccc2oc(=O)c3ccc(C)cc3c2c1O`, for which the T/C was 95 % of control (dose: 1.5 mg/kg/injection, schedule: Q01DX009 (ip), vehicle: Klucel (hydroxypropylcellulose) (HPC)); 104 % of control (dose: 3.0 mg/kg/injection, schedule: Q01DX009 (ip), vehicle: Klucel (hydroxypropylcellulose) (HPC)); 104 % of control (dose: 6.0 mg/kg/injection, schedule: Q01DX009 (ip), vehicle: Klucel (hydroxypropylcellulose) (HPC)); 92 % of control (dose: 6.25 mg/kg/injection, schedule: Q01DX009 (ip), vehicle: Klucel (hydroxypropylcellulose) (HPC)); 100 % of control under setting [1]; 100 % of control under setting [2]. Further, under setting [3], the T/C is 95 % of control.
Take `c1ccc(CSc2ncnc3nc[nH]c23)nc1`: the T/C was 100 % of control (dose: 50.0 mg/kg/injection, schedule: Q01DX009 (ip), vehicle: saline sonified); 105 % of control (dose: 50.0 mg/kg/injection, schedule: Q04DX003 (ip), vehicle: saline with Tween-80); 111 % of control (dose: 100.0 mg/kg/injection, schedule: Q01DX009 (ip), vehicle: saline sonified); 100 % of control under setting [4]; 100 % of control under setting [5].
Take `Nc1ccccc1/C=C(\C(=O)O)c1cccc(Cl)c1`: the T/C was 95 % of control under setting [1], 104 % of control under setting [2] and 100 % of control under setting [3].
`CC1(C)OC(COCCOCCOCCCO)C(COCCOCCOCCCO)O1` (stereo unspecified): the T/C is, setting by setting: (dose: 100.0 mg/kg/injection, schedule: Q01DX001 (ip), vehicle: saline) 112 % of control; (dose: 100.0 mg/kg/injection, schedule: Q01DX001 (ip), vehicle: suspension in saline) 100 % of control; (dose: 200.0 mg/kg/injection, schedule: Q01DX001 (ip), vehicle: saline) 111 % of control; (dose: 200.0 mg/kg/injection, schedule: Q01DX001 (ip), vehicle: suspension in saline) 98 % of control; (dose: 400.0 mg/kg/injection, schedule: Q01DX001 (ip), vehicle: suspension in saline) 120 % of control; (dose: 800.0 mg/kg/injection, schedule: Q01DX001 (ip), vehicle: suspension in saline) 100 % of control.
Regarding `c1ccc2cc3c(cc2c1)Cn1c-3nc2ccccc21`, the T/C is, setting by setting: under setting [6], 100 % of control; under setting [7], 100 % of control; under setting [8], 95 % of control.
As to `COc1cc2c(cc1OC)C(OC)N(C)c1c-2ccc2cc(OC)c(OC)cc12` (stereo unspecified), the T/C (dose: 100.0 mg/kg/injection, schedule: Q04DX003 (ip), vehicle: water) was 161 % of control; the T/C (dose: 200.0 mg/kg/injection, schedule: Q04DX003 (ip), vehicle: water) is 161 % of control; the T/C (dose: 300.0 mg/kg/injection, schedule: Q04DX003 (ip), vehicle: water) was 166 % of control; the T/C (dose: 400.0 mg/kg/injection, schedule: Q04DX003 (ip), vehicle: water) was 102 % of control.
For the molecule `COc1cc([C@@H]2c3cc4c(cc3[C@H](OC(C)=O)[C@H]3COC(=O)[C@@H]23)OCO4)cc(OC)c1OC`, the T/C reads like this: (dose: 25.0 mg/kg/injection, schedule: Q01DX010 (ip), vehicle: carboxymethylcellulose (CMC)) 123 % of control; under setting [9], 172 % of control; (dose: 50.0 mg/kg/injection, schedule: Q01DX010 (ip), vehicle: carboxymethylcellulose (CMC)) 95 % of control; (dose: 50.0 mg/kg/injection, schedule: Q04DX003 (ip), vehicle: saline sonified) 100 % of control; (dose: 66.0 mg/kg/injection, schedule: Q04DX003 (ip), vehicle: saline sonified) 88 % of control; (dose: 88.0 mg/kg/injection, schedule: Q04DX003 (ip), vehicle: saline with Tween-80) 113 % of control. Moreover, the T/C runs as follows: (dose: 100.0 mg/kg/injection, schedule: Q04DX003 (ip), vehicle: saline sonified) 100 % of control; (dose: 132.0 mg/kg/injection, schedule: Q04DX003 (ip), vehicle: saline with Tween-80) 150 % of control; (dose: 150.0 mg/kg/injection, schedule: Q04DX003 (ip), vehicle: saline sonified) 100 % of control; (dose: 200.0 mg/kg/injection, schedule: Q04DX003 (ip), vehicle: saline sonified) 170 % of control; under setting [5], 160 % of control.
On to `COc1cc2c(cc1OC)-c1c3c(cc4c1[C@@H](C2)N(C)CC4)OCO3`, for which the T/C was 100 % of control (dose: 12.5 mg/kg/injection, schedule: Q01DX009 (ip), vehicle: acid diluted with saline); 100 % of control (dose: 25.0 mg/kg/injection, schedule: Q01DX009 (ip), vehicle: acid diluted with saline); 105 % of control (dose: 50.0 mg/kg/injection, schedule: Q01DX009 (ip), vehicle: acid diluted with saline).
For the molecule `Cc1ccc(C(c2ccc(C)cc2)C(Cl)(Cl)Cl)cc1`, the T/C is, setting by setting: (dose: 100.0 mg/kg/injection, schedule: Q01DX001 (ip), vehicle: saline sonified) 100 % of control; (dose: 200.0 mg/kg/injection, schedule: Q01DX001 (ip), vehicle: saline sonified) 100 % of control; (dose: 400.0 mg/kg/injection, schedule: Q01DX001 (ip), vehicle: saline sonified) 90 % of control.
In the case of `COc1ccc(C2(C(=O)O)CC2)cc1`, the T/C reads like this: under setting [6], 111 % of control; under setting [4], 109 % of control; under setting [7], 100 % of control; under setting [5], 109 % of control; under setting [8], 96 % of control; under setting [10], 113 % of control.
For `O=NN(c1ccccc1)c1ccc(N(N=O)c2ccccc2)cc1`, the T/C under setting [11] is 100 % of control, the T/C under setting [12] is 105 % of control and the T/C under setting [13] was 110 % of control.
For the molecule `N#Cc1ccc(S(N)(=O)=O)cc1`, the T/C is, setting by setting: (dose: 12.5 mg/kg/injection, schedule: Q04DX003 (ip), vehicle: Klucel (hydroxypropylcellulose) (HPC)) 109 % of control; (dose: 25.0 mg/kg/injection, schedule: Q01DX009 (ip), vehicle: Klucel (hydroxypropylcellulose) (HPC)) 111 % of control; (dose: 25.0 mg/kg/injection, schedule: Q04DX003 (ip), vehicle: Klucel (hydroxypropylcellulose) (HPC)) 109 % of control; under setting [11], 111 % of control; under setting [9], 100 % of control; (dose: 50.0 mg/kg/injection, schedule: Q04DX003 (ip), vehicle: Klucel (hydroxypropylcellulose) (HPC)) 104 % of control. Moreover, the T/C under setting [12] is 111 % of control.
Regarding `C=C1C(=O)O[C@H]2C/C(C)=C/CC/C(CO)=C/[C@@H](O)[C@H]12`, the T/C is 110 % of control (dose: 5.5 mg/kg/injection, schedule: Q01DX009 (ip), vehicle: alcohol); 120 % of control (dose: 33.0 mg/kg/injection, schedule: Q01DX009 (ip), vehicle: alcohol); 95 % of control (dose: 50.0 mg/kg/injection, schedule: Q01DX009 (ip), vehicle: alcohol).
On to `S=P(N1CCOCC1)(N1CC1)N1CC1`, for which the T/C was 109 % of control (dose: 2.5 mg/kg/injection, schedule: Q01DX010 (ip), vehicle: saline) and 155 % of control (dose: 20.0 mg/kg/injection, schedule: Q01DX010 (ip), vehicle: saline).
Turning to `CC1CN1P(=O)(Oc1ccccc1)N1CC1C` (stereo unspecified), where the note is “dose: 65.0 mg/kg/injection, schedule: Q01DX009 (ip), vehicle: saline”, the T/C is 104 % of control.
Regarding `CSc1ncc(CO)c(N)n1`, the T/C by setting is: under setting [12], 91 % of control; under setting [13], 95 % of control; (dose: 400.0 mg/kg/injection, schedule: Q01DX009 (ip), vehicle: Klucel (hydroxypropylcellulose) (HPC)) 87 % of control.
As to `CC(=O)c1ccc2ccccc2c1O`, the T/C is 90 % of control (dose: 100.0 mg/kg/injection, schedule: Q01DX001 (ip), vehicle: other); 104 % of control under setting [6]; 109 % of control under setting [4]; 122 % of control (dose: 175.0 mg/kg/injection, schedule: Q01DX009 (ip), vehicle: saline with Tween-80); 100 % of control (dose: 200.0 mg/kg/injection, schedule: Q01DX001 (ip), vehicle: other); 104 % of control under setting [7]. The T/C is, setting by setting: under setting [5], 104 % of control; (dose: 400.0 mg/kg/injection, schedule: Q01DX001 (ip), vehicle: other) 95 % of control; under setting [8], 118 % of control; under setting [10], 104 % of control; (dose: 600.0 mg/kg/injection, schedule: Q01DX009 (ip), vehicle: saline with Tween-80) 113 % of control.
